Reference: US20260124222A1, “ISOTHIAZOLYLCARBOXAMIDE COMPOUNDS AND THEIR USE IN THERAPY” (HOTSPOT THERAPEUTICS, INC., priority 2022, published 2026)

Biological target: T1, Avi-tagged FL MALT-1 (Homo sapiens, UniProt Q9UDY8)
T1 construct: Avi-tagged FL MALT-1 (Pharmaron, stored at −70° C.); Avi-tag; purchased Pharmaron
T1 sequence (Q9UDY8 1-824): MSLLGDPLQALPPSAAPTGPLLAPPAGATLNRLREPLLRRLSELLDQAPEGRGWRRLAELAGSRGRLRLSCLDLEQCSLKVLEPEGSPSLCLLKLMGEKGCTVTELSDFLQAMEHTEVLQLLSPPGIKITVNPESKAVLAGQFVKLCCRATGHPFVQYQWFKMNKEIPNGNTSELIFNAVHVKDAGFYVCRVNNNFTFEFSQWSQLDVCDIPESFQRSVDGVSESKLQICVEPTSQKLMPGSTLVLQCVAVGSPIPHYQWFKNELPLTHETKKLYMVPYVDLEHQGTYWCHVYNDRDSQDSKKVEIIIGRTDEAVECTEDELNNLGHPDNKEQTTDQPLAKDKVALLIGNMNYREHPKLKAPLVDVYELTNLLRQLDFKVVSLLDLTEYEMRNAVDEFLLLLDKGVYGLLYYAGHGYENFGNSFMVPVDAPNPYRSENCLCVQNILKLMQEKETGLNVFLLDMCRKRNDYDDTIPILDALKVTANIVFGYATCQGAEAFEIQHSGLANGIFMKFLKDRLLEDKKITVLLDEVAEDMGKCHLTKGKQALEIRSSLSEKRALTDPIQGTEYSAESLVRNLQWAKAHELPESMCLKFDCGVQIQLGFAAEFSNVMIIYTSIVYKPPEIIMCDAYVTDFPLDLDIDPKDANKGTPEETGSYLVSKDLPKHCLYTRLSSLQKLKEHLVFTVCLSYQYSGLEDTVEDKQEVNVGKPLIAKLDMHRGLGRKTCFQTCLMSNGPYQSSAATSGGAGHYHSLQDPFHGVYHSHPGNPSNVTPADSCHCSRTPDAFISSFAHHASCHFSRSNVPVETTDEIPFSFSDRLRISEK
Assay: MALT-1 Fluorogenic Peptide Cleavage Assay (MALT1 inhibition assay)
Format: biochemical
Settings: Ac-LRSR-AMC peptide substrate; 30 min pre-incubation, 90 min reaction at room temperature; fluorescence
In short: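 Full-length Avi-tagged enzyme preincubated 30 min at room temperature with compound (2% DMSO final) in HEPES pH 6.89 buffer with sodium citrate, TCEP, EDTA and CHAPS. Ac-LRSR-AMC substrate added at Km or 10×Km (working stocks 50 or […] μM); fluorescence (ex 342/em 441 nm) after 90 min; IC50 from sigmoidal fit.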

IC50 [nM] | Structure (SMILES)
400 to 1000 | O=C(Nc1ccnc(C(F)(F)F)c1)c1snc(-c2ccn3ncnc3c2)c1C1CC1 [I-151, 3-([1,2,4]triazolo[1,5-a]pyridin-7-yl)-4-cyclopropyl-N-(2-(trifluoromethyl)pyridin-4-yl)isothiazole-5-carboxamide]
400 to 1000 | Cn1cc2cccc(-c3nsc(C(=O)Nc4ccnc(C(F)(F)F)c4)c3C3CC3)c2n1 [I-208, 4-cyclopropyl-3-(2-methyl-2H-indazol-7-yl)-N-(2-(trifluoromethyl)pyridin-4-yl)isothiazole-5-carboxamide]
≤ 400 | O=C(Nc1ccnc(C(F)(F)F)c1)c1snc(-c2cccc(C(F)F)c2)c1C1CC1 [I-174, 4-cyclopropyl-3-[3-(difluoromethyl)phenyl]-N-[2-(trifluoromethyl)pyridin-4-yl]-1,2-thiazole-5-carboxamide]
≤ 400 | Cc1c(-c2nsc(C(=O)Nc3ccnc(C(F)(F)F)c3)c2C2CC2)cnn1C [I-183, 4-cyclopropyl-3-(1,5-dimethyl-1H-pyrazol-4-yl)-N-(2-(trifluoromethyl)pyridin-4-yl)isothiazole-5-carboxamide]
≤ 400 | N#Cc1cc(NC(=O)c2snc(-c3ccccc3)c2C2CC2)cnc1-n1nccn1 [I-9, N-(5-CYANO-6-(2H-1,2,3-TRIAZOL-2-YL) PYRIDIN-3-YL)-4-CYCLOPROPYL-3-PHENYLISOTHIAZOLE-5-CARBOXAMIDE]
≤ 400 | CN(C)c1ncc(NC(=O)c2snc(-c3ccccc3)c2C2CC2)cc1C#N [I-29, N-(5-CYANO-6-(DIMETHYLAMINO)PYRIDIN-3-YL)-4-CYCLOPROPYL-3-PHENYLISOTHIAZOLE-5-CARBOXAMIDE]
> 2500 | CC(=O)N1CC(c2nsc(C(=O)Nc3cnc(-n4nccn4)c(C#N)c3)c2C(F)(F)F)C1 [I-129, 3-(1-acetylazetidin-3-yl)-N-[5-cyano-6-(1,2,3-triazol-2-yl)pyridin-3-yl]-4-(trifluoromethyl)-1,2-thiazole-5-carboxamide]
1000 to 2500 | CC(C)c1nsc(C(=O)Nc2ccnc(C(F)(F)F)c2)c1C1CC1 [I-124]
≤ 400 | N#Cc1cc(NC(=O)c2snc(-c3cccc4c(=O)[nH]ccc34)c2C2CC2)cnc1-n1nccn1 [I-188, N-(5-cyano-6-(2H-1,2,3-triazol-2-yl)pyridin-3-yl)-4-cyclopropyl-3-(1-oxo-1,2-dihydroisoquinolin-5-yl)isothiazole-5-carboxamide]
≤ 400 | Cc1cn(C)nc1-c1nsc(C(=O)Nc2cnc(-n3nccn3)c(C#N)c2)c1C1CC1 [I-116]
> 2500 | N#Cc1cc(NC(=O)c2snc(-c3ccccc3)c2C2(O)COC2)cnc1-n1nccn1 [I-61]
≤ 400 | CN(CCO)C(=O)c1ccc(NC(=O)c2snc(-c3ccccc3)c2C2CC2)cc1Cl [I-24, N-(3-CHLORO-4-((2-HYDROXYETHYL) (METHYL)CARBAMOYL)PHENYL)-4-CYCLOPROPYL-3-PHENYLISOTHIAZOLE-5-CARBOXAMIDE]
> 2500 | Cn1ccc(-c2nsc(C(=O)Nc3cnc(-n4nccn4)c(C#N)c3)c2C(F)(F)F)cc1=O [I-128, N-(5-cyano-6-(2H-1,2,3-triazol-2-yl)pyridin-3-yl)-3-(1-methyl-2-oxo-1,2-dihydropyridin-4-yl)-4-(trifluoromethyl)isothiazole-5-carboxamide]
≤ 400 | CC(C)c1c(-c2ccccc2)nsc1C(=O)Nc1cnc(-n2nccn2)c(Cl)c1 [I-5, N-(5-CHLORO-6-(2H-1,2,3-TRIAZOL-2-YL) PYRIDIN-3-YL)-4-ISOPROPYL-3-PHENYLISOTHIAZOLE-5-CARBOXAMIDE]
≤ 400 | Cn1cc2c(-c3nsc(C(=O)Nc4ccnc(C(F)(F)F)c4)c3C3CC3)cccc2n1 [I-157, 4-cyclopropyl-3-(2-methyl-2H-indazol-4-yl)-N-(2-(trifluoromethyl)pyridin-4-yl)isothiazole-5-carboxamide]
≤ 400 | COc1ncccc1-c1nsc(C(=O)Nc2ccnc(C(F)(F)F)c2)c1C1CC1 [I-163, 4-cyclopropyl-3-(2-methoxypyridin-3-yl)-N-(2-(trifluoromethyl)pyridin-4-yl)isothiazole-5-carboxamide]
> 2500 | CN1CC(c2nsc(C(=O)Nc3cnc(-n4nccn4)c(C#N)c3)c2C(F)(F)F)C1 [I-130, N-[5-cyano-6-(1,2,3-triazol-2-yl)pyridin-3-yl]-3-(1-methylazetidin-3-yl)-4-(trifluoromethyl)-1,2-thiazole-5-carboxamide]

IC50 [nM] | Structure (SMILES)
≤ 400 | N#Cc1cccc(-c2nsc(C(=O)Nc3ccnc(C(F)(F)F)c3)c2C2CC2)c1 [I-158, 3-(3-cyanophenyl)-4-cyclopropyl-N-[2-(trifluoromethyl)pyridin-4-yl]-1,2-thiazole-5-carboxamide]
≤ 400 | O=C(Nc1cnc(-n2nccn2)c(Cl)c1)c1snc(-c2ccccc2)c1C(F)(F)F [I-7, N-(5-CHLORO-6-(2H-1,2,3-TRIAZOL-2-YL) PYRIDIN-3-YL)-3-PHENYL-4-(TRIFLUOROMETHYL)ISOTHIAZOLE-5-CARBOXAMIDE]
≤ 400 | Cc1ccccc1-c1nsc(C(=O)Nc2ccnc(C(F)(F)F)c2)c1C1CC1 [I-160, 4-cyclopropyl-3-(2-methylphenyl)-N-[2-(trifluoromethyl)pyridin-4-yl]-1,2-thiazole-5-carboxamide]
≤ 400 | N#Cc1cc(NC(=O)c2snc(-c3ccccc3)c2C2CC2)cnc1N1CCOCC1 [I-53, N-(5-CYANO-6-MORPHOLINOPYRIDIN-3-YL)-4-CYCLOPROPYL-3-PHENYLISOTHIAZOLE-5-CARBOXAMIDE]
≤ 400 | Cc1cc(NC(=O)c2snc(-c3cccc4ncsc34)c2C2CC2)ccn1 [I-104]
400 to 1000 | CC(=O)Nc1ccc(-c2nsc(C(=O)Nc3ccnc(C(F)(F)F)c3)c2C2CC2)cc1 [I-148, 3-(4-acetamidophenyl)-4-cyclopropyl-N-(2-(trifluoromethyl)pyridin-4-yl)isothiazole-5-carboxamide]
≤ 400 | O=C(Nc1cnc(C(=O)N2CC(O)C2)c(Cl)c1)c1snc(-c2cccc3ncsc23)c1C1CC1 [I-117]
≤ 400 | O=C(Nc1ccnc(C(F)(F)F)c1)c1snc(-c2ccccc2Cl)c1C1CC1 [I-135, 3-(2-chlorophenyl)-4-cyclopropyl-N-[2-(trifluoromethyl)pyridin-4-yl]-1,2-thiazole-5-carboxamide]
≤ 400 | N#Cc1cc(NC(=O)c2snc(C3CCOCC3)c2C(F)(F)F)cnc1-n1nccn1 [I-34]
≤ 400 | O=C(Nc1ccnc(C(F)(F)F)c1)c1snc(-c2cncc3ccccc23)c1C1CC1 [I-177, 4-cyclopropyl-3-(isoquinolin-4-yl)-N-(2-(trifluoromethyl)pyridin-4-yl)isothiazole-5-carboxamide]
≤ 400 | COc1cccc(-c2nsc(C(=O)Nc3ccnc(C(F)(F)F)c3)c2C2CC2)c1 [I-156, 4-cyclopropyl-3-(3-methoxyphenyl)-N-(2-(trifluoromethyl)pyridin-4-yl)isothiazole-5-carboxamide]
≤ 400 | O=C(Nc1ccnc(C(F)(F)F)c1)c1snc(-c2cccc3c(=O)[nH]ccc23)c1C1CC1 [I-189, 4-cyclopropyl-3-(1-oxo-1,2-dihydroisoquinolin-5-yl)-N-(2-(trifluoromethyl)pyridin-4-yl)isothiazole-5-carboxamide]
≤ 400 | N#Cc1cc(NC(=O)c2snc(-c3cccc4nccn34)c2C2CC2)cnc1-n1nccn1 [I-131, N-(5-cyano-6-(2H-1,2,3-triazol-2-yl)pyridin-3-yl)-4-cyclopropyl-3-(imidazo[1,2-a]pyridin-5-yl)isothiazole-5-carboxamide]
≤ 400 | O=C(Nc1cnc(C(=O)N2CC(O)C2)c(Cl)c1)c1snc(-c2cccn3nccc23)c1C1CC1 [I-212, N-(5-chloro-6-(3-hydroxyazetidine-1-carbonyl)pyridin-3-yl)-4-cyclopropyl-3-(pyrazolo[1,5-a]pyridin-4-yl)isothiazole-5-carboxamide]
≤ 400 | Cc1c(-c2ccccc2)nsc1C(=O)Nc1cnc(-n2nccn2)c(Cl)c1 [I-3, N-(5-CHLORO-6-(2H-1,2,3-TRIAZOL-2-YL)PYRIDIN-3-YL)-4-METHYL-3-PHENYLISOTHIAZOLE-5-CARBOXAMIDE]
> 2500 | O=C(Nc1ccc(C(=O)N2CC(O)C2)nc1)c1snc(-c2ccccc2)c1C1CC1 [I-59, 4-CYCLOPROPYL-N-(6-(3-HYDROXY-AZETIDINE-1-CARBONYL)PYRIDIN-3-YL)-3-PHENYLISOTHIAZOLE-5-CARBOXAMIDE]
≤ 400 | N#Cc1cc(NC(=O)c2snc(-c3ccccn3)c2C2CC2)cnc1-n1nccn1 [I-27, N-(5-CYANO-6-(2H-1,2,3-TRIAZOL-2-YL) PYRIDIN-3-YL)-4-CYCLOPROPYL-3-(PYRIDIN-2-YL)ISOTHIAZOLE-5-CARBOXAMIDE]
